We go through 16 molecules from patent US20070191267A1, “Use of tyrosine kinase inhibitors for treating cerebral ischemia” (AB SCIENCE, priority 2003, published 2007).

For one series, the target named is T1, c-kit (Homo sapiens, UniProt P10721).
T1 construct: purified intracellular domain of c-kit expressed in baculovirus; made in house
The series can be described thus: In vitro TK inhibition assay (ELISA, phosphorylation of tyrosine containing target peptide). It is filed as biochemical. To be noted: purified intracellular domain of c-kit expressed in baculovirus. As for the experimental part: in Vitro TK Inhibition Assays
Experiments were performed using purified intracellular domain of c-kit expressed in baculovirus. Estimation of the kinase activity was assessed by the phosphorylation of tyrosine containing target peptide estimated by established ELISA assay.

T1 sequence (P10721 546-976 limits assumed): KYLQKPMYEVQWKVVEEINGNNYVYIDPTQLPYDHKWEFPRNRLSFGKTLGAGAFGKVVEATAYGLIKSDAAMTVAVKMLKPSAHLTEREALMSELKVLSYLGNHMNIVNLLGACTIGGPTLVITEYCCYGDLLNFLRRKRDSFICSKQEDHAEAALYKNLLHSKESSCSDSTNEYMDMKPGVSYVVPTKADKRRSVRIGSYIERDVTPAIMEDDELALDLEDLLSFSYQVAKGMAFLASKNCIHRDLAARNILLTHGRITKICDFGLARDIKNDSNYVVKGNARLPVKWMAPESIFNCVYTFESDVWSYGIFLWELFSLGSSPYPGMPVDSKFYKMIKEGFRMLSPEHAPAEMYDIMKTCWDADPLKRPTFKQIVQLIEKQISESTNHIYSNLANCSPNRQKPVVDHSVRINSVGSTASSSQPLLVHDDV

In the case of `Cc1ccc(NC(=O)Nc2ccccc2F)cc1Nc1nc(-c2cccnc2)cs1` [Compound 023, 1-(2-Fluoro-phenyl)-3-[4-methyl-3-(4-pyridin-3-yl-thiazol-2-ylamino)-phenyl]-urea], the melting point fell in the range of 203 to 206 °C. The half-inhibitory concentration (IC50) at c-kit is less than 10 µM.
The molecule `Cc1ccc(NC(=O)Nc2cccc(F)c2)cc1Nc1nc(-c2cccnc2)cs1` [Compound 025, 1-(3-Fluoro-phenyl)-3-[4-methyl-3-(4-pyridin-3-yl-thiazol-2-ylamino)-phenyl]-urea] yielded a melting point of 210 to 215 °C.
Same read-out and setting: with `Cc1ccc(NC(=O)Nc2ccc(C)c(Nc3nc(-c4cccnc4)cs3)c2)cc1` [Compound 026, 3-[4-Methyl-3-(4-pyridin-3-yl-thiazol-2-ylamino)-phenyl]-3-p-tolyl-urea] the figure was 238 to 240 °C.
Same read-out and setting: with `Cc1ccc(NC(=O)c2ccc(NS(=O)(=O)c3cccs3)cc2)cc1Nc1nc(-c2cccnc2)cs1` [Compound 044, N-[4-Methyl-3-(4-pyridin-3-yl-thiazol-2-ylamino)-phenyl]-4-(thiophene-2-sulfonylamino)-benzamide] the figure was 230 to 233 °C; with `Cc1ccc(NC(=O)c2cccc(F)c2)cc1Nc1nc(-c2cccnc2)cs1` [Compound 045, 3-Fluoro-N-[4-methyl-3-(4-pyridin-3-yl-thiazol-2-ylamino)-phenyl]-benzamide], 184 to 186 °C; with `Cc1ccc(NC(=O)c2ccc(-c3ccncc3)cc2)cc1Nc1nc(-c2cccnc2)cs1` [Compound 046, N-[4-Methyl-3-(4-pyridin-3-yl-thiazol-2-ylamino)-phenyl]-4-pyridin-4-yl-benzamide], 254 to 256 °C.
`Cc1ccc(NC(=O)c2ccc(N(C)C)cc2)cc1Nc1nc(-c2cccnc2)cs1` [Compound 047, 4-Dimethylamino-N-[4-methyl-3-(4-pyridin-3-yl-thiazol-2-ylamino)-phenyl]-benzamide] registered a melting point of 147 to 150 °C.
Same read-out and setting: with `Cc1ccc(F)c(C(=O)Nc2ccc(C)c(Nc3nc(-c4cccnc4)cs3)c2)c1` [Compound 048, 2-Fluoro-5-methyl-N-[4-methyl-3-(4-pyridin-3-yl-thiazol-2-ylamino)-phenyl]-benzamide] the figure was 103 to 106 °C; with `Cc1ccc(NC(=O)c2ccc(C(C)(C)C)cc2)cc1Nc1nc(-c2cccnc2)cs1` [Compound 049, 4-tert-Butyl-N-[4-methyl-3-(4-pyridin-3-yl-thiazol-2-ylamino)-phenyl]-benzamide], 145 to 150 °C; with `Cc1ccc(NC(=O)c2cccc(OCCN3CCOCC3)c2)cc1Nc1nc(-c2cccnc2)cs1` [Compound 052, N-[4-Methyl-3-(4-pyridin-3-yl-thiazol-2-ylamino)-phenyl]-3-(2-morpholin-4-yl-ethoxy)-benzamide], 75 to 80 °C.
`Cc1ccc(NC(=O)c2ccc(-c3ccncc3)cc2)cc1Nc1nc(-c2cccnc2)cs1` [Compound 053] returned an IC50 on c-kit of less than 10 µM.
As for `Cc1ccc(NC(=O)c2cccc(C(F)(F)F)c2F)cc1Nc1nc(-c2cccnc2)cs1` [Compound 055, 2-Fluoro-N-[4-methyl-3-(4-pyridin-3-yl-thiazol-2-ylamino)-phenyl]-3-trifluoromethyl-benzamide], the IC50 on c-kit was less than 10 µM.
On the same count and under the same terms, with `Cc1ccc(NC(=O)c2ccc(CN3CCN(C)CC3)c(F)c2)cc1Nc1nc(-c2cccnc2)cs1` [Compound 074, 3-Fluoro-4-(4-methyl-piperazin-1-ylmethyl)-N-[4-methyl-3-(4-pyridin-3-yl-thiazol-2-ylarnino)-phenyl]-benzamide] the figure was less than 10 µM.
As to `Cc1ccc(NC(=O)c2cccc(N(C)C)c2)cc1Nc1nc(-c2cccnc2)cs1` [Compound 088, 3-Dimethylamino-N-[4-methyl-3-(4-pyridin-3-yl-thiazol-2-ylamino)-phenyl]-benzamide], the melting point was 197 to 198 °C.
For `Cc1ccc(NC(=O)c2cccc(N3CCOCC3)c2)cc1Nc1nc(-c2cccnc2)cs1` [Compound 090, N-[4-Methyl-3-(4-pyridin-3-yl-thiazol-2-ylamino)-phenyl]-3-morpholin-4-yl-benzamid], the melting point was 247 to 248 °C.
For the molecule `Cc1ccc(NC(=O)CCCN2CCOCC2)cc1Nc1nc(-c2cccnc2)cs1` [Compound 096, N-[4-Methyl-3-(4-pyridin-3-yl-thiazol-2-ylamtino)-phenyl]-4-morpholin-4-yl-butyramide], the melting point lay in the range of 116 to 120 °C.
